Assay results published in patent US12508280B2, “Formulations for improving gut health” (DSM IP ASSETS B.V., priority 2018, dated 2025).

What was measured:
[1] = tested on: fecal microbial community; experiment: Microbiome composition by shotgun sequencing: alpha diversity (first set); assay type: cell-based, human; details: after 24 h fermentation, vs corresponding control
Description: (§1) Since ethanol is known to have antimicrobial effects, two blanks for each type of stock solution were included. As a source of the microbial community, a freshly prepared fecal suspension from the selected donor was added to the reactors. […] All tests, except the blanks, were performed in single repetition, resulting in 40 independent incubations, as specified in Table 1. Incubation conditions of the pre-screening experiment and the final experiment were 48 h at 37° C., under shaking (90 rpm) and anaerobic conditions. DNA were extracted from effluent samples collected from each fermentation flask before (0 h fermentation) and after fermentation (24 h fermentation) and use for microbiome composition analysis by Shotgun sequencing. Effluent samples were collected from each fermentation flask before (0 h fermentation) and after fermentation (48 h fermentation), sterilized by filtering through 0.22 μm filters and used for short chain fatty acids (SCFA), quantification of immunological biomarkers and in vitro analysis in cell culture systems.
(§2) For the first set of in vitro experiments, total DNA was extracted from all samples collected throughout the study using the QIAamp DNA stool minikit (Qiagen, Crawley, United Kingdom) according to the manufacturer's instructions, apart from addition of a bead-beating step and increasing the lysis temperature to 95° C. as described previously (McCormack et al., 2018).
(§3) After DNA isolation, DNA was quantified using the Qubit High Sensitivity DNA assay (Thermo Fisher). Whole metagenome libraries were then prepared using the Illumina Nextera XT kit (Illumina) in accordance with the manufacturer's instructions, with the following modifications: Firstly, tagmentation time was increased to 7 min and secondly, following incorporation of indices and Ampure purification of the products, the samples were each individually sized by running on an Agilent High Sensitivity Chip (Agilent) and quantified using the Qubit High Sensitivity DNA assay (Thermo Fisher) in accordance with Teagasc Sequencing Platform SOPs. The samples were then pooled equimolarly and sequenced on the Illumina NextSeq 500 with a NextSeq 500/550 v2 high-output reagent kit (300 cycles). All sequencing was done in the Teagasc sequencing facility in accordance with standard Illumina sequencing protocols.
(§4) Delivered raw FASTQ sequence files were quality checked as follows: poor quality and duplicate read removal, as well as trimming was implemented using a combination of SAM and Picard tools. Taxonomy was assigned to the reads using the Kraken software and functional analysis was performed with Super focus.

[2] = tested on: genes involved in Acetyl-CoA fermentation to Butyrate pathway; experiment: Shotgun sequencing functional analysis: butyrate pathway genes (first set); assay type: cell-based, human; details: after 24 h fermentation, vs corresponding control
Description: as §1, §2, §3, §4

[3] = tested on: fecal suspension from the selected donor; experiment: Intestinal batch fermentation, SCFA production (first set); assay type: cell-based, human; details: after 48 h fermentation, vs corresponding control
Description: In a first set of in vitro experiments at the start of intestinal batch fermentation incubation, all test ingredients were added from stock solutions to the modified nutritional medium, containing (g/l): 2.5 K2HPO4, 10.9 KH2PO4, 2 NaHCO3, 2 yeast extract, 2 peptone, 1 mucin, 0.5 cysteine, 2 Tween 80, 2 glucose, 2 starch, 2 cellobiose, 0.1 NaCl, 0.01 MgSO4·7H2O, 0.01 CaCl2·6H2O, 0.05 hemin, 0.5 bile salts.
The other compounds were prepared in ethanol: • Vitamin K1 (VK1), • MEG-3 0080 EE Oil (MEG-3 0080 EE), • MEG-3 4535 EE Oil (MEG-3 4535 EE), • MEG-3 8000 EE Oil (MEG-3 8000 EE).
as §1
Short chain fatty acids (SCFA) are an assessment of the microbial carbohydrate metabolism (acetate, propionate and butyrate) or protein metabolism (branched SCFA) and can be compared to typical fermentation patterns for normal GI microbiota. Samples for SCFA analysis were analyzed after 0, 6, 24 and 48 h of incubation for both set of in vitro experiments, above.
SCFA were extracted from the samples with diethyl ether, after the addition of 2-methyl hexanoic acid as an internal standard. Extracts were analysed using a GC-2014 gas chromatograph (Shimadzu's-Hertogenbosch, the Nether-lands), equipped with a capillary fatty acid-free EC-1000Econo-Cap column (dimensions: […]×0.53 mm, film thickness […]; Alltech, Laarne, Belgium), a flame ionization detector and a split injector. The injection volume was […] and the temperature profile was set from 110 to 160° C., with a temperature increase of 6° C. min-1. The carrier gas was nitrogen and the temperature of the injector and detector were […] and 220° C., respectively. The production of unbranched and branched SCFA was calculated by summing the molar concentrations of acetate, propionate, butyrate, valerate and caproate, and summing isobutyrate, isovalerate and isocaproate molar concentrations, respectively. The total SCFA production was defined as the sum of unbranched and branched SCFA.

[4] = tested on: Co-cultures of Caco-2 and HT29-MTX-E12 cells; experiment: Barrier integrity, leaky gut model, apical stressor Rhamnolipids; assay type: cell-based; details: vs corresponding control; for TEER, apical induction of leaky gut cellular model: 48 h minus 0 h fermentation samples
Description: Since ethanol is known to have antimicrobial effects, two blanks for each type of stock solution were included. As a source of the microbial community, a freshly prepared fecal suspension from the selected donor was added to the reactors. […] All tests, except the blanks, were performed in single repetition, resulting in 40 independent incubations, as specified in Table 1. Incubation conditions of the pre-screening experiment and the final experiment were 48 h at 37° C., under shaking (90 rpm) and anaerobic conditions. […] Effluent samples were collected from each fermentation flask before (0 h fermentation) and after fermentation (48 h fermentation), sterilized by filtering through 0.22 μm filters and used for short chain fatty acids (SCFA), quantification of immunological biomarkers and in vitro analysis in cell culture systems.
Co-cultures of Caco-2 and HT29-MTX-E12 cells were used to assess the protective effect of the supernatants before (0 h) and after fermentation (48 h) for both sets of in vitro experiments above.
CaCo-2 ECACC 86010202 and HT29-MTX-E12 ECACC 12040401 cells (both from European Collection of Cell Cultures, Salisbury, UK) were both cultured at 37° C., in atmosphere of 5% CO2 in DMEM medium supplemented with 4.5 g/L D-Glucose, 4 mM L-Glutamine, 1 mM Sodium Pyruvate, 1% MEM Non-Essential Amino Acids, 50 μg/mL Gentamicin (Life Technologies Europe B.V., Zug, Switzerland) and 10% heat-inactivated FBS (Sigma-Aldrich, Buchs, Switzerland). Sub-confluent cells were trypsinized using 0.25% Trypsin/EDTA (Life Technologies Europe B.V., Zug, Switzerland) and passaged at a ratio of 1:5-1:10 twice a week. Cells between passages 55 and 85 were used for this study.
Cells were seeded at a density of 20000 cells/well in a 7:3 ratio (Caco-2:HT29-MTX-E12) in Corning HTS Transwell-24 system PET membranes, 0.4 μM pore size, cell growth area 0.33 cm2/well (Corning BV, Amsterdam, Netherlands) and cultured as described above. Media was changed every second to third day.
For both sets of in vitro experiments, the integrity of cell monolayers after the stressor test was evaluated by both TEER values and by measuring the transport of Lucifer yellow from apical to basolateral compartments (Leaky gut model). A prewarmed HBSS transport buffer composed of Hank's Balanced Salt Solution pH 7.4 with Ca2+ and Mg2+, containing 5.5 mM D-(+)-glucose, Sodium Bicarbonate, and supplemented with 4 mM L-glutamine, 20 mM HEPES (Life Technologies Europe B.V., Zug, Switzerland) was used for all permeability experiments. The inserts were rinsed twice with HBSS using a reservoir tray, 100 μl HBSS were then added to the apical site of the inserts and subsequently moved to new wells with fresh HBSS and allowed to equilibrate at 37° C. for 60 min in the incubator followed by TEER measurement to obtain baseline resistance readings.
Lucifer Yellow CH dilithium salt (Sigma-Aldrich, Buchs, Switzerland) was dissolved in HBSS at a final concentration of 100 μg/ml. Basolateral stressor EtOH (Merck, KgaA, Darmstadt, Germany) was diluted to 5% in HBSS. Apical Stressor Rhamnolipids R90 (AGAE Technologies, Corvallis, USA) was dissolved in HBSS containing Lucifer Yellow at a final concentration of 350 μg/ml. All solutions were prepared freshly each time.
The HBSS transport buffer from the basolateral chamber was aspirated first, then the HBSS from the apical chamber and replaced with Lucifer yellow solution. For the apical stressor test, Lucifer yellow solution containing 350 μg/ml Rhamnolipids or Lucifer yellow solution without stressor for the control wells was loaded into the apical compartment, blank HBSS was subsequently added to the basolateral chamber.

Bifidobacterium = experiment: Microbiome composition by shotgun sequencing: Bifidobacterium (first set); assay type: cell-based, human; details: after 24 h fermentation, vs corresponding control
Description: as §1, §2, §3, §4

HT29 cells = experiment: HT29 cell culture, quantification of immunological biomarkers; assay type: cell-based; details: effluent from 24 h fermentation, vs corresponding control
Description: as §1, with “([…]), […]” for “(0 h fermentation) and after fermentation (48 h fermentation), sterilized by filtering through 0.22 μm filters and used for short chain fatty acids (SCFA), quantification of immunological biomarkers and in vitro analysis in”
For both sets of in vitro experiments, HT29 cells were obtained from American Type Culture Collection (Manassas, VA). Cells were cultured in DMEM supplemented with 10% fetal bovine serum (FBS), 50 units/ml penicillin, 50 μg/ml streptomycin, L-glutamine, and nonessential amino acids (Life Technologies Europe B.V., Zug, Switzerland). Cells were seeded into 12-well plates at 8×10^5 cells per well and used after 2 days of preculture. They were starved in DMEM containing 0.25% FBS for 18 h before treatment. Cells were treated for 24 hours with TNF-α at 100 ng/mL or fermentation supernatants which were sterile filtered and diluted 1:20 in DMEM containing 0.25% FBS. All treatments were done in triplicate. Consequently, cytokines, chemokines and interleukins were quantified in HT29 supernatants using the Luminex Technology (LiquiChip Workstation IS 200, Qiagen, Hilden, Germany) with Bio-Plex Pro Human Cytokine Panel kits (Bio-Rad, Hercules, CA) or with Luminex Screening Assay kits (R&D Systems, Inc., Minneapolis, MN), following the manufacturer's instructions. The data were acquired with the Luminex IS 2.3 software and evaluated with the LiquiChip Analyser software (Qiagen, Hilden, Germany).

| Compound | microbiome alpha diversity (Shannon diversity index) ([1]; 0.2× dose) | microbiome alpha diversity (Shannon diversity index) ([1]; 1× dose) | relative abundance of genes involved in Acetyl-CoA fermentation to Butyrate pathway ([2]; 0.2× dose) | acetate production ([3]; 0.2× dose) | butyrate production ([3]; 0.2× dose) | propionate production ([3]; 0.2× dose) | total SCFAs production ([3]; 0.2× dose) | acetate production ([3]; 1× dose) | butyrate production ([3]; 1× dose) | propionate production ([3]; 1× dose) | total SCFAs production ([3]; 1× dose) | acetate production ([3]; 5× dose) | butyrate production ([3]; 5× dose) | propionate production ([3]; 5× dose) | total SCFAs production ([3]; 5× dose) | Bifidobacterium relative abundance (Bifidobacterium; 0.2× dose) | IL-8 production by HT29 cells (HT29 cells; 0.2× dose) | further results |
| --- | --- | --- | --- | --- | --- | --- | --- | --- | --- | --- | --- | --- | --- | --- | --- | --- | --- | --- |
| CC1=C(C/C=C(\C)CCC[C@H](C)CCC[C@H](C)CCCC(C)C)C(=O)c2ccccc2C1=O [Vitamin K1] | increase microbiome diversity | increase microbiome diversity | increase relative abundance | increase acetate production | increase butyrate production | increase propionate production | increase total SCFAs production | increase acetate production | increase butyrate production | increase propionate production | increase total SCFAs production | increase acetate production | increase butyrate production | increase propionate production | increase total SCFAs production | increase Bifidobacterium relative abundance | increase IL-8 production | microbiome alpha diversity (Shannon diversity index) ([1]; 5× dose): increase microbiome diversity; relative abundance of genes involved in Acetyl-CoA fermentation to Butyrate pathway ([2]; 1× dose): increase relative abundance; relative abundance of genes involved in Acetyl-CoA fermentation to Butyrate pathway ([2]; 5× dose): increase relative abundance; Lucifer yellow, apical induction of leaky gut cellular model ([4]; 0.2× dose, 48 h fermentation samples): decrease Lucifer yellow; MIP3A-CCL20 production by HT29 cells (HT29 cells; 0.2× dose): increase MIP3A-CCL20 production; MIP3A-CCL20 production by HT29 cells (HT29 cells; 1× dose): increase MIP3A-CCL20 production; MIP3A-CCL20 production by HT29 cells (HT29 cells; 5× dose): increase MIP3A-CCL20 production |
| Nc1nc2ncc(CNc3ccc(C(=O)N[C@@H](CCC(=O)O)C(=O)O)cc3)nc2c(=O)[nH]1 [folic acid, Folic acid] | increase microbiome diversity | increase microbiome diversity | increase relative abundance | increase acetate production | increase butyrate production | increase propionate production | increase total SCFAs production | increase acetate production | increase butyrate production | increase propionate production | increase total SCFAs production | increase acetate production | increase butyrate production | increase propionate production | increase total SCFAs production | increase Bifidobacterium relative abundance | increase IL-8 production | TEER, apical induction of leaky gut cellular model ([4]; 0.2× dose): increase TEER; TEER, apical induction of leaky gut cellular model ([4]; 1× dose): increase TEER; Bifidobacterium relative abundance (Bifidobacterium; 1× dose): increase Bifidobacterium relative abundance; IL-8 production by HT29 cells (HT29 cells; 5× dose): increase IL-8 production |
